These compounds were tested against T1, full length PDK1 (Homo sapiens, UniProt O15530) (assay: PDK1 enzyme assays (substrate phosphorylation: LEADseeker scintillation proximity, TR-FRET, PDKtide)). Conditions: in at least one experimental run, read-out: IC50 against full length PDK1.
T1 construct: Full-length human 3-Phosphoinositide Dependent protein Kinase-1; made in house; host or cells: baculovirus / Sf9 insect cells
T1 sequence (O15530 1-556): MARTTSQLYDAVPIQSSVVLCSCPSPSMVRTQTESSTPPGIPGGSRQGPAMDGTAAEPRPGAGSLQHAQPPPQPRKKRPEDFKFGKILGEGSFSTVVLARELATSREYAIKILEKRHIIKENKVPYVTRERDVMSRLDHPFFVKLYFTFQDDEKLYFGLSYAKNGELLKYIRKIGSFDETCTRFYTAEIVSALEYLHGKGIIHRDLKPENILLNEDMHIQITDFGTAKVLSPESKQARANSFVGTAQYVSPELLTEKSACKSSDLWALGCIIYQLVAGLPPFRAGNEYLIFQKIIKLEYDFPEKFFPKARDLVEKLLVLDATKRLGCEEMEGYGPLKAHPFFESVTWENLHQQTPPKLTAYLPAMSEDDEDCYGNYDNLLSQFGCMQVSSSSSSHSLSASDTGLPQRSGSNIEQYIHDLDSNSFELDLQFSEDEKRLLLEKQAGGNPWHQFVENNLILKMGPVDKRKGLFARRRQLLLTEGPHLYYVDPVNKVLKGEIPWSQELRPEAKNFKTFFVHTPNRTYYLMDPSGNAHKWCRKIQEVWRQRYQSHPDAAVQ
Format: biochemical
Protocol: Substrate phosphorylation assays are carried out as follows:
Biotinylated-hAKT1: Human AKT1 (containing amino acid residues 136-480, as annotated by National Center for Biotechnology Information (NCBI) accession number AAL55732.1, with a MetLysLysHis6 N-terminal addition) is purified to >90% from lysate of baculovirus expression by Nickel Chelating ProBond resin (InVitrogen), Q-Sepharose Fast Flow, and Superdex 200 size exclusion chromatography. Biotinylation is achieved using EZ-Link Sulfo-NHS-LC Biotin (Pierce). Samples, in 25 mM HEPES, pH 7.5, 200 mM NaCl, 2 mM DTT, and 30% glycerol are stored at −80C until use.
Full-length human 3-Phosphoinositide Dependent protein Kinase-1 (hPDK1; National Center for Biotechnology Information (NCBI) accession number AAH39158.1 with a MetGlyHis6 N-terminal addition) is purified from baculovirus expression in Sf9 cells. Purity of approximately 80% is achieved by the use of chelation chromatography (Ni-NTA Superflow) and desalting columns. Samples, in 25 mM HEPES, 150 mM NaCl, 2.5 mM DTT, 0.05% Triton, 30% glycerol, pH 8.0, are stored at −80° C. until use.
The 39 amino acid biotinylated-PDKtide peptide Seq. ID No. 1: (Biotin-Ahx-[…]) was custom synthesized by 21st Century Biochemicals. […] The concentration was confirmed by quantitative amino acid analysis.
Scintillation Proximity (LEADseeker) Kinase Assay of Purified hPDK1:
Assays are performed in 384-well microtiter plates (Greiner, Catalog No. 784075). The reaction volume (10 μl) contains, in final concentrations, 25 mM MOPS (pH 7.5), 10 mM MgCl2, 50 mM KCl, 0.1 mg/ml BSA, 1 μM ATP, 3 uCi/ml ^33PγATP, 5 mM DTT, 1 mM CHAPS or 0.05% Tween20, 0.35 μM AKT1 biotinylated protein, and 10 nM hPDK1.
Compounds, titrated in DMSO, are evaluated at eleven concentrations ranging from 50 μM to 2 μM. […] Reactions are stopped after 3 hours at room temperature by the addition of 50 mM EDTA, 5 mg/ml LEADseeker beads (GE Healthcare) in PBS (10 ul). Beads are allowed to settle overnight, and samples are imaged on Viewlux (PerkinElmer).
The data for compound concentration responses were plotted as % Inhibition, calculated with the data reduction formula 100*(1−[(U1−C2)/(C1−C2)]), versus concentration of compound, where
Data were fitted to the curve described by:
TR-FRET Kinase Assay of Purified hPDK1:
Assays are performed in 384-well microtiter plates (Greiner, Catalog No. 784076).
As previously described for the Scintillation Proximity protocol, hPDK1 is pre-incubated (30 minutes at room temperature) with compounds before initiating phosphorylation of AKT1 by addition of substrate to the hPDK1 and compound mix. Reactions are stopped after 4-6 hours at room temperature by the addition to final concentrations of 0.02 M EDTA, 0.0875 μM Streptavidin APC (PerkinElmer), 0.03 μM AKT1 (phospho T308) antibody (Abcam Inc.), 0.00375 μM Lance Eu-labeled anti rabbit IgG Antibody (PerkinElmer). Antibody binding reaches equilibrium in 30 minutes before signal is read on an EnVision™ 2103 Multilabel Reader (PerkinElmer). APC Signals are normalized to Europium signal. Data processing is the same as described for the Scintillation Proximity assay with the exception of the generation of the “C2” control by addition of buffer without hPDK1 to control wells at t=0 instead of EDTA.
Scintillation Proximity (LEADseeker) Kinase Assay of Purified hPDK1 using Biotinylated-PDKtide Peptide:
Assays are performed in 384-well microtiter plates (Greiner, Catalog No. 784075). The reaction volume (10 μl) contains, in final concentrations, 25 mM MOPS (pH 7.5), 10 mM MgCl2, 50 mM KCl, 0.1 mg/ml BSA, 1 μM ATP, 3 uCi/ml ^33PγATP, 5 mM DTT, 0.5 mM CHAPS, 1 μM biotinylated-PDKtide peptide, and 0.5 nM hPDK1.
Compounds, titrated in DMSO, are evaluated at eleven concentrations ranging from 25 μM to 0.4 pM. […] Reactions are stopped after 4 hours at room temperature by the addition of 50 mM EDTA, 5 mg/ml LEADseeker beads (GE Healthcare) in PBS (10 ul).

Compound	IC50 [nM]
Nc1nc(NCc2ccccc2)cc(-c2ccc3c(N)n[nH]c3c2)n1 [Example 2, 6-(3-Amino-1H-indazol-6-yl)-N^4-(phenylmethyl)-2,4-pyrimidinediamine]	< 100
Nc1nc(NCC2CCCCC2)cc(-c2ccc3c(N)n[nH]c3c2)n1 [Example 38, 6-(3-Amino-1H-indazol-6-yl)-N^4-(cyclohexylmethyl)-2,4-pyrimidinediamine]	< 100
CC[C@@H]1CCCN1c1cc(-c2ccc3c(N)n[nH]c3c2)nc(N)n1 [Example 46, 6-{2-Amino-6-[(2R)-2-ethyl-1-pyrrolidinyl]-4-pyrimidinyl}-1H-indazol-3-amine]	< 150
Nc1nc(NC2CC2)cc(-c2ccc3c(N)n[nH]c3c2)n1 [Example 51, 6-(3-Amino-1H-indazol-6-yl)-N^4-cyclopropyl-2,4-pyrimidinediamine]	< 100
CCCNc1cc(-c2ccc3c(N)n[nH]c3c2)nc(N)n1 [Example 74, 6-(3-Amino-1H-indazol-6-yl)-N^4-propyl-2,4-pyrimidinediamine]	< 100
CNc1nc(-c2ccc3c(N)n[nH]c3c2)cc(N2C[C@@H](C(=O)NCc3ccccc3)CC[C@H]2C)n1 [Example 80, (3S,6R)-1-[6-(3-Amino-1H-indazol-6-yl)-2-(methylamino)-4-pyrimidinyl]-6-methyl-N-(phenylmethyl)-3-piperidinecarboxamide]	< 20
CNc1nc(-c2cc(F)c3c(N)n[nH]c3c2)cc(N2C[C@@H](C(=O)NC3CCCCC3)CC[C@H]2C)n1 [Example 85, (3S,6R)-1-[6-(3-Amino-4-fluoro-1H-indazol-6-yl)-2-(methylamino)-4-pyrimidinyl]-N-cyclohexyl-6-methyl-3-piperidinecarboxamide]	< 20
CC1CCC(NC(=O)OC2CCCC2)CN1c1cc(-c2ccc3c(N)n[nH]c3c2)nc(N)n1 (stereo not drawn) [Example 120, Cis-cyclopentyl{1-[2-amino-6-(3-amino-1H-indazol-6-yl)-4-pyrimidinyl]-6-methyl-3-piperidinyl}carbamate]	< 50
C[C@@H]1CC[C@H](C(=O)NC2CCCC2)CN1c1cc(-c2ccc3c(N)n[nH]c3c2)nc(N)n1 [Example 142, (3S,6R)-1-[2-amino-6-(3-amino-1H-indazol-6-yl)-4-pyrimidinyl]-N-cyclopentyl-6-methyl-3-piperidinecarboxamide]	< 20
C[C@@H]1CC[C@H](C(=O)NCCc2ccccc2)CN1c1cc(-c2ccc3c(N)n[nH]c3c2)nc(N)n1 [Example 149, (3S,6R)-1-[2-Amino-6-(3-amino-1H-indazol-6-yl)-4-pyrimidinyl]-6-methyl-N-(2-phenylethyl)-3-piperidinecarboxamide]	< 20
CC[C@@H]1COCCN1c1cc(-c2cc(NC3CCCC3)c3c(N)n[nH]c3c2)nc(NC)n1 [Example 181, N^4-Cyclopentyl-6-[6-[(3R)-3-ethyl-4-morpholinyl]-2-(methylamino)-4-pyrimidinyl]-1H-indazole-3,4-diamine]	< 150
CCOc1cc(-c2cc(N3CCOC[C@H]3CC)nc(NC)n2)cc2[nH]nc(N)c12 [Example 184, 6-[6-[(3R)-3-Ethyl-4-morpholinyl]-2-(methylamino)-4-pyrimidinyl]-4-(ethyloxy)-1H-indazol-3-amine]	< 150
CCOc1cc(-c2cc(N3CCOC[C@H]3C(C)C)nc(N)n2)cc2[nH]nc(N)c12 [Example 199, 6-{2-Amino-6-[(3R)-3-(1-methylethyl)-4-morpholinyl]-4-pyrimidinyl}-4-(ethyloxy)-1H-indazol-3-amine]	< 150
COc1cc(-c2cc(N3CCOC[C@H]3C)nc(N)n2)cc2[nH]nc(N)c12 [Example 200, 6-{2-Amino-6-[(3R)-3-methyl-4-morpholinyl]-4-pyrimidinyl}-4-(methyloxy)-1H-indazol-3-amine]	< 150
CNc1nc(-c2cc(OC)c3c(N)n[nH]c3c2)cc(N2CCC[C@@H](NC(=O)OC(C)(C)C)C2)n1 [Example 203, 1,1-Dimethylethyl{(3R)-1-[6-[3-amino-4-(methyloxy)-1H-indazol-6-yl]-2-(methylamino)-4-pyrimidinyl]-3-piperidinyl}carbamate]	< 50
Nc1nc(-c2ccc3c(N)n[nH]c3c2)cc(N2CCC[C@@H](NC(=O)OC3CCC3)C2)n1 [Example 209, Cyclobutyl{(3R)-1-[2-amino-6-(3-amino-1H-indazol-6-yl)-4-pyrimidinyl]-3-piperidinyl}carbamate]	< 50
Nc1nc(-c2ccc3c(N)n[nH]c3c2)cc(N2CCC[C@@H](N3CCOC3=O)C2)n1 [Example 211, 3-{(3R)-1-[2-Amino-6-(3-amino-1H-indazol-6-yl)-4-pyrimidinyl]-3-piperidinyl}-1,3-oxazolidin-2-one]	< 50
CC(C)OC(=O)N[C@@H]1CCCN(c2cc(-c3ccc4c(N)n[nH]c4c3)nc(N)n2)C1 [Example 217, 1-Methylethyl{(3R)-1-[2-amino-6-(3-amino-1H-indazol-6-yl)-4-pyrimidinyl]-3-piperidinyl}carbamate]	< 50
